From patent US12319699B2, “L-proline sulfonamide derivatives comprising pyrazolo[4,3-e]tetrazolo[4,5-b][1,2,4]triazine system, method of manufacturing thereof, uses thereof and pharmaceutical composition comprising the same” (UNIWERSYTET MEDYCZNY W BIALYMSTOKU, priority 2018, dated 2025)

Tests used:
Assay type in all cases: cell-based
[1] = test system: DLD-1 human colorectal cancer cells; experiment: DNA biosynthesis, [3H]-thymidine incorporation; settings: DLD-1, 24-hour incubation
Method: (§1) DLD-1 human colorectal cancer cells (ATCC CCL-221, Manassas, VA, USA) were grown in DMEM (Dulbecco's Modified Eagle's Medium) supplemented with 10% fetal bovine serum (FBS), 2 mM glutamine, 50 U/ml penicillin, 50 μg/ml streptomycin at 37° C., in atmosphere containing 5% of CO2. Then the cells were counted in a hemocytometer and transferred in the amount of 1×10^6 cells per well in 1 ml of culture medium from Costar flasks (Sigma, USA) to Nunc 6-well plates (Wiesbaden, Germany). The cells were transferred using calcium-free phosphate buffer with the addition of 0.05% trypsin and 0.02% EDTA. […] Within the subsequent 24 hours the cells covered at least 80% of the surface of each plate well. The cells prepared in this manner were incubated with the examined compounds for 24 hours and then used for further experiments.
(§2) The effect of the examined compounds according to the invention on the process of DNA biosynthesis was assessed by measuring incorporation of [^3H]-thymidine into DNA of the examined cells. […] After 5 minutes, the cell lysate obtained was transferred to scintillation vials containing 2 ml of scintillation fluid and radioactivity was measured. […] The values from the examined samples were expressed as percentage of the control value. The significance level p was determined by the nonparametric Mann-Whitney U test by means of SigmaStat software. […]

[2] = test system: DLD-1 human colorectal cancer cells; experiment: Cytotoxicity, MTT assay (Carmichael's method), cell survival; settings: DLD-1, 24-hour incubation
Method: as §1, with “The cells prepared in this manner were incubated with the examined compounds for 24 hours and then used for further experiments.” left out
Cytotoxicity of the examined compounds according to the invention was measured by Carmichael's method (Carmichael J et al, Cancer Res., 1987, 47:943-946) and cell viability was determined using the tetrazolium salt (MT) in MTT assay. […] In a cell lysate prepared in such manner absorbance at 630 nm was measured. The result of absorbance obtained in the control cell cultures was assumed to be 100%. The viability of cells incubated in the presence of the examined compounds was expressed as percentage of the control values. The significance level p was determined by the nonparametric Mann-Whitney U test by means of SigmaStat software. […]

[3] = test system: HT-29 human colorectal cancer cells; experiment: DNA biosynthesis, [3H]-thymidine incorporation; settings: HT-29, 24-hour incubation
Method: HT-29 human colorectal cancer cells (ATCC HTB-38, Manassas, VA, USA) were cultured in McCoy's 5A medium supplemented with 10% fetal bovine serum (FBS), 2 mM glutamine, 50 U/ml penicillin, 50 μg/ml of streptomycin at 37° C., in atmosphere containing 5% CO2. Subsequently, the cells were counted in a hemocytometer and were transferred in the amount of 1×10^6 cells per well in 1 ml of culture medium from Costar flasks (Sigma, USA) to Nunc 6-well plates (Wiesbaden, Germany). The cells were transferred using calcium-free phosphate buffer with the addition of 0.05% trypsin and 0.02% EDTA. […] Within the subsequent 24 hours the cells covered at least 80% of the surface of each plate well. The cells prepared in this manner were incubated with the examined compounds for 24 hours and then used for further experiments.
as §2

| IC50 [1] [nM] | IC50 [3] [nM] | Structure (SMILES) | IC50 [2] [nM] |
| --- | --- | --- | --- |
| 560 ± 10 | 3620 ± 20 | COC(=O)C1CCCN1S(=O)(=O)c1ccc(-n2nc(C)c3nc4nnnn4nc32)cc1 (stereo not drawn) [Compound of Formula 2, Methyl 1-[4-(7-methyl-5H-pyrazol[4,3-e]tetrazolo[4,5-b][1,2,4]triazyn-5-yl)phenylsulfonyl]pyrrolidine-2-carboxylate] | 1100 ± 10 |
| 1550 ± 20 | 2300 ± 20 | COC(=O)C1CC(O)CN1S(=O)(=O)c1ccc(-n2nc(C)c3nc4nnnn4nc32)cc1 (stereo not drawn) [Compound of Formula 3, Methyl 4-hydroxy-1-[4-(7-methyl-5H-pyrazolo[4,3-e]tetrazolo[4,5-b][1,2,4]triazyn-5-yl)phenylsulfonyl]pyrrolidine-2-carboxylate] | 3100 ± 20 |
